According to PubChem BioAssay AID330 (DTP/NCI, 2004):
Values joined by “and” are separate entries in the source; they are usually repeats but may differ in a detail not shown here. Equal entries are not always repeated. Toxic doses and inconclusive results are not listed.

Test system: P388 leukemia ip, CD2F1 mice, survival T/C
Test: NCI In Vivo Anticancer Drug Screen. Data for tumor model P388 Leukemia (intraperitoneal) in CD2F1 (CDF1) mice
Conditions: endpoint: median survival time, higher = longer survival
Method in brief: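 Mice carrying the transplanted tumor received test compound or vehicle. Survival was recorded in each group, and the value is the treated-group measurement divided by that of the vehicle-treated control group.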

[1] = dose: 7.5 mg/kg/injection, schedule: Q01DX005 (ip), vehicle: saline with Tween-80
[2] = dose: 15.0 mg/kg/injection, schedule: Q01DX005 (ip), vehicle: saline with Tween-80
[3] = dose: 30.0 mg/kg/injection, schedule: Q01DX005 (ip), vehicle: saline with Tween-80
[4] = dose: 6.25 mg/kg/injection, schedule: Q01DX005 (ip), vehicle: saline
[5] = dose: 12.5 mg/kg/injection, schedule: Q01DX005 (ip), vehicle: saline
[6] = dose: 25.0 mg/kg/injection, schedule: Q01DX005 (ip), vehicle: saline
[7] = dose: 50.0 mg/kg/injection, schedule: Q01DX009 (ip), vehicle: saline
[8] = dose: 100.0 mg/kg/injection, schedule: Q01DX009 (ip), vehicle: saline
[9] = dose: 200.0 mg/kg/injection, schedule: Q01DX009 (ip), vehicle: saline
[10] = dose: 6.25 mg/kg/injection, schedule: Q01DX005 (ip), vehicle: Klucel (hydroxypropylcellulose) (HPC)
[11] = dose: 12.5 mg/kg/injection, schedule: Q01DX005 (ip), vehicle: Klucel (hydroxypropylcellulose) (HPC)
[12] = dose: 50.0 mg/kg/injection, schedule: Q01DX005 (ip), vehicle: Klucel (hydroxypropylcellulose) (HPC)
[13] = dose: 200.0 mg/kg/injection, schedule: Q01DX005 (ip), vehicle: Klucel (hydroxypropylcellulose) (HPC)
[14] = dose: 50.0 mg/kg/injection, schedule: Q01DX009 (ip), vehicle: saline with Tween-80
[15] = dose: 100.0 mg/kg/injection, schedule: Q01DX009 (ip), vehicle: saline with Tween-80
[16] = dose: 200.0 mg/kg/injection, schedule: Q01DX009 (ip), vehicle: saline with Tween-80
[17] = dose: 200.0 mg/kg/injection, schedule: Q04DX003 (ip), vehicle: saline with Tween-80
[18] = dose: 400.0 mg/kg/injection, schedule: Q04DX003 (ip), vehicle: saline with Tween-80
[19] = dose: 60.0 mg/kg/injection, schedule: Q01DX005 (ip), vehicle: saline with Tween-80

In the case of C1=CN2C(c3ccccc3)=NN(c3ccccc3)[C@@H]2c2ccccc21, the T/C (dose: 1.87 mg/kg/injection, schedule: Q01DX005 (ip), vehicle: saline with Tween-80) is reported as 102 % of control, the T/C (dose: 3.75 mg/kg/injection, schedule: Q01DX005 (ip), vehicle: saline with Tween-80) is reported as 102 % of control and the T/C [1] is reported as 103 % of control and 93 % of control.
c1ccc2c(c1)CCC1=C2S/C(=C2/SC3=C(S2)c2ccccc2CC3)S1 was tested, and the T/C [1] was 94 % of control, the T/C [2] was 100 % of control and the T/C [3] was 100 % of control.
For CC1(O)CC[N+](C)(C)CC1c1ccccc1 (centres undefined), the T/C (dose: 50.0 mg/kg/injection, schedule: Q04DX003 (ip), vehicle: saline) was 118 % of control and the T/C (dose: 100.0 mg/kg/injection, schedule: Q04DX003 (ip), vehicle: saline) was 113 % of control.
With [Ni].c1c[nH]cn1.c1c[nH]cn1.c1c[nH]cn1.c1c[nH]cn1.c1c[nH]cn1.c1c[nH]cn1 the T/C [4] was 92 % of control, the T/C [5] was 86 % of control and the T/C [6] was 87 % of control. The T/C (dose: 50.0 mg/kg/injection, schedule: Q01DX005 (ip), vehicle: saline) was 100 % of control.
With c1ccc(-c2cc(-c3cc(-c4ccccn4)[nH]n3)n[nH]2)nc1 the T/C (dose: 60.0 mg/kg/injection, schedule: Q01DX005 (ip), vehicle: saline + Tween-80 + alcohol) was 91 % of control, the T/C (dose: 120.0 mg/kg/injection, schedule: Q01DX005 (ip), vehicle: saline + Tween-80 + alcohol) was 94 % of control and the T/C (dose: 240.0 mg/kg/injection, schedule: Q01DX005 (ip), vehicle: saline + Tween-80 + alcohol) was 104 % of control.
For CCOC(=O)CC(=O)C(OC)OC, the T/C [7] was 106 % of control, the T/C [8] was 105 % of control and the T/C [9] was 102 % of control. The T/C (dose: 400.0 mg/kg/injection, schedule: Q01DX009 (ip), vehicle: saline) was 98 % of control.
ClC(Cl)=[C](Cl)[Hg][C](Cl)=C(Cl)Cl was tested, and the T/C (dose: 3.13 mg/kg/injection, schedule: Q01DX009 (ip), vehicle: Klucel (hydroxypropylcellulose) (HPC)) was 105 % of control, the T/C (dose: 6.25 mg/kg/injection, schedule: Q01DX009 (ip), vehicle: Klucel (hydroxypropylcellulose) (HPC)) was 100 % of control and the T/C (dose: 12.5 mg/kg/injection, schedule: Q01DX009 (ip), vehicle: Klucel (hydroxypropylcellulose) (HPC)) was 97 % of control.
CC1=C(O)C(=O)C(c2c(C)cc(C)c(Br)c2C)=C(O)C1=O was tested, and the T/C [10] was 100 % of control and 104 % of control, the T/C [11] was 104 % of control and 117 % of control and 118 % of control and the T/C (dose: 25.0 mg/kg/injection, schedule: Q01DX005 (ip), vehicle: Klucel (hydroxypropylcellulose) (HPC)) was 104 % of control and 117 % of control. The T/C [12] was 116 % of control and 94 % of control.
In the case of c1cc2c3c(ccc2c2c1OCN(C1CCCCC1)C2)OCN(C1CCCCC1)C3, the T/C (dose: 3.12 mg/kg/injection, schedule: Q01DX005 (ip), vehicle: Klucel (hydroxypropylcellulose) (HPC)) is reported as 96 % of control, the T/C [10] is reported as 91 % of control and the T/C [11] is reported as 90 % of control. For the same molecule, the T/C [13] was 94 % of control.
C=C1C(=O)OC2(CCCCC)CCCCC12 (centres undefined) was tested, and the T/C [7] was 96 % of control, the T/C [8] was 99 % of control and the T/C [9] was 96 % of control.
With O=c1[nH]nc(OCCO)c2ccccc12 the T/C [12] was 100 % of control, the T/C (dose: 100.0 mg/kg/injection, schedule: Q01DX005 (ip), vehicle: Klucel (hydroxypropylcellulose) (HPC)) was 98 % of control and the T/C [13] was 99 % of control.
For Cn1ncc2c(N)c(C#N)c(=O)[nH]c21, the T/C (dose: 25.0 mg/kg/injection, schedule: Q01DX001 (ip), vehicle: saline with Tween-80) was 102 % of control.
COC(=O)c1cc(=O)nc(NN=C2c3ccccc3-c3ccccc32)s1 was tested, and the T/C (dose: 12.5 mg/kg/injection, schedule: Q01DX005 (ip), vehicle: saline with Tween-80) was 97 % of control, the T/C (dose: 25.0 mg/kg/injection, schedule: Q01DX005 (ip), vehicle: saline with Tween-80) was 94 % of control and the T/C (dose: 50.0 mg/kg/injection, schedule: Q01DX005 (ip), vehicle: saline with Tween-80) was 88 % of control and 92 % of control.
In the case of Cn1c(=O)c2nc(-c3ccccc3)nnc2n(C)c1=O, the T/C (dose: 100.0 mg/kg/injection, schedule: Q04DX003 (ip), vehicle: Klucel (hydroxypropylcellulose) (HPC)) is reported as 102 % of control, the T/C (dose: 200.0 mg/kg/injection, schedule: Q04DX003 (ip), vehicle: Klucel (hydroxypropylcellulose) (HPC)) is reported as 103 % of control and the T/C (dose: 400.0 mg/kg/injection, schedule: Q04DX003 (ip), vehicle: Klucel (hydroxypropylcellulose) (HPC)) is reported as 115 % of control.
For Nc1c(Cl)cc(C(=O)O)cc1Cl, the T/C (dose: 25.0 mg/kg/injection, schedule: Q01DX009 (ip), vehicle: saline with Tween-80) was 95 % of control, the T/C [14] was 90 % of control and the T/C [15] was 87 % of control. The T/C [16] was 100 % of control.
With O=C(NCCCBr)Nc1cccc2c1CCCC2 the T/C [15] was 100 % of control, the T/C (dose: 100.0 mg/kg/injection, schedule: Q04DX003 (ip), vehicle: saline with Tween-80) was 100 % of control and the T/C [16] was 100 % of control. For the same molecule, the T/C [17] was 108 % of control, the T/C (dose: 400.0 mg/kg/injection, schedule: Q01DX009 (ip), vehicle: saline with Tween-80) was 100 % of control and the T/C [18] was 100 % of control.
For CC(=O)c1c(OCC(O)CN2CCN(C)CC2)cccc1OCC(O)CN1CCN(C)CC1 (centres undefined), the T/C [4] was 105 % of control, the T/C [5] was 101 % of control and the T/C [6] was 105 % of control.
CCCCCCCCCCCCCCCCN1c2ccccc2C(C)(C)C12C=Cc1cccc([N+](=O)[O-])c1O2 (centres undefined) was tested, and the T/C [14] was 92 % of control, the T/C [15] was 93 % of control and the T/C [16] was 88 % of control.
N=C1C=CC2C(=Nc3ccccc3[N+]2=O)N1CCO (centres undefined) was tested, and the T/C [2] was 99 % of control and 105 % of control, the T/C [3] was 101 % of control and 112 % of control and the T/C [19] was 100 % of control and 103 % of control.
With Cc1cc(Nc2ccc(C(=O)N/N=C/c3ccc(N(CCCl)CCCl)cc3)cc2)nc2ccc(Cl)cc12 the T/C [7] was 90 % of control, the T/C [8] was 91 % of control and the T/C [9] was 87 % of control.
With CC(N)(CCC(=O)O)C(=O)O (centres undefined) the T/C (dose: 50.0 mg/kg/injection, schedule: Q01DX009 (ip), vehicle: Klucel (hydroxypropylcellulose) (HPC)) was 98 % of control, the T/C (dose: 100.0 mg/kg/injection, schedule: Q01DX009 (ip), vehicle: Klucel (hydroxypropylcellulose) (HPC)) was 96 % of control and the T/C (dose: 200.0 mg/kg/injection, schedule: Q01DX009 (ip), vehicle: Klucel (hydroxypropylcellulose) (HPC)) was 97 % of control. For the same molecule, the T/C (dose: 400.0 mg/kg/injection, schedule: Q01DX009 (ip), vehicle: Klucel (hydroxypropylcellulose) (HPC)) was 103 % of control.
In the case of CSc1nc(COC(=O)NC(C)C)c(COC(=O)NC(C)C)n1C, the T/C (dose: 12.5 mg/kg/injection, schedule: Q01DX005 (ip), vehicle: Klucel + Tween-80) is reported as 113 % of control, the T/C (dose: 25.0 mg/kg/injection, schedule: Q01DX005 (ip), vehicle: Klucel + Tween-80) is reported as 116 % of control and the T/C (dose: 100.0 mg/kg/injection, schedule: Q01DX005 (ip), vehicle: Klucel + Tween-80) is reported as 156 % of control and 163 % of control. For the same molecule, the T/C (dose: 200.0 mg/kg/injection, schedule: Q01DX005 (ip), vehicle: Klucel + Tween-80) was 184 % of control.
For COc1cc2c3cc1Oc1c(O)c(OC)cc4c1[C@H](Cc1ccc(cc1)Oc1cc(ccc1O)C[C@H]3N(C)CC2)N(C)CC4, the T/C (dose: 1.25 mg/kg/injection, schedule: Q01DX009 (ip), vehicle: water) was 100 % of control, the T/C (dose: 2.5 mg/kg/injection, schedule: Q01DX009 (ip), vehicle: water) was 101 % of control and the T/C (dose: 5.0 mg/kg/injection, schedule: Q01DX009 (ip), vehicle: water) was 97 % of control. The T/C (dose: 10.0 mg/kg/injection, schedule: Q01DX009 (ip), vehicle: water) was 101 % of control, the T/C (dose: 20.0 mg/kg/injection, schedule: Q01DX009 (ip), vehicle: other) was 103 % of control and the T/C (dose: 20.0 mg/kg/injection, schedule: Q01DX009 (ip), vehicle: water) was 94 % of control. The T/C (dose: 40.0 mg/kg/injection, schedule: Q01DX009 (ip), vehicle: other) was 94 % of control and the T/C (dose: 80.0 mg/kg/injection, schedule: Q01DX009 (ip), vehicle: other) was 109 % of control.
For Cc1nc2cc(N)c(Cl)cc2[nH]1, the T/C [19] was 104 % of control and the T/C (dose: 120.0 mg/kg/injection, schedule: Q01DX005 (ip), vehicle: saline with Tween-80) was 107 % of control.
c1c2c(cc3c1OCN(C1CC1)C3)OCN(C1CC1)C2 was tested, and the T/C [14] was 94 % of control, the T/C [15] was 90 % of control and the T/C [16] was 96 % of control.
In the case of CS(=O)(=O)OCC(=O)NCC(O)CNC(=O)COS(C)(=O)=O, the T/C [16] is reported as 175 % of control, the T/C [17] is reported as 181 % of control and the T/C [18] is reported as 162 % of control and 181 % of control.
